Assay results: the NIST ThermoML archive (doi:10.1016/j.jct.2005.09.003)

Key:
[1] = Liquid
[2] = refractive index (Na D-line) (dimensionless); settings: 298.15 K; 101.33 kPa; Liquid; Standard Abbe refractometry

CCCCCCCC [octane]
mass density [kg/m3], [1]
Settings | 298.15 K | 308.15 K | 318.15 K | 328.15 K
100 kPa | 698.64 | 690.43 | 682.47 | 674.53
2130 kPa | 700.14 | 692.18 | 684.48 | 676.49
4150 kPa | 701.87 | 694 | 686.45 | 678.56
6180 kPa | 703.56 | 695.79 | 688.29 | 680.59
8210 kPa | 705.17 | 697.53 | 690.17 | 682.57
10230 kPa | 706.78 | 699.24 | 691.97 | 684.51
11250 kPa | 707.58 | 700.07 | 692.85 | 685.44
12260 kPa | 708.37 | 700.88 | 693.77 | 686.38
14290 kPa | 709.9 | 702.55 | 695.49 | 688.23
16310 kPa | 711.41 | 704.13 | 697.2 | 690.03
18340 kPa | 712.9 | 705.71 | 698.86 | 691.76
20370 kPa | 714.36 | 707.23 | 700.47 | 693.5
22390 kPa | 715.78 | 708.76 | 702.07 | 695.17
24420 kPa | 717.18 | 710.22 | 703.61 | 696.82
26450 kPa | 718.56 | 711.66 | 705.13 | 698.41
28470 kPa | 719.9 | 713.09 | 706.66 | 699.98
29490 kPa | 720.57 | 713.77 | 707.38 | 700.75
30500 kPa | 721.22 | 714.47 | 708.13 | 701.53
32530 kPa | 722.53 | 715.84 | 709.54 | 703.01
34550 kPa | 723.82 | 717.18 | 710.96 | 704.5
36580 kPa | 725.06 | 718.5 | 712.33 | 705.96
38600 kPa | 726.32 | 719.82 | 713.68 | 707.36
39620 kPa | 726.94 | 720.45 | 714.38 | 708.06

Settings | refractive index
[2] | 1.395
